Read-outs that look alike come from different tables or passages of the source.
What was measured:
EcDos = conditions: cited from earlier work
EcDosH = conditions: cited from earlier work
ferric EcDosH = ferric EcDosH (Escherichia coli, UniProt P76129)
ferrous EcDosH = conditions: cited from earlier work
full-length EcDos = conditions: pH 8; cited from earlier work

Chain of ferric EcDosH (P76129 1-139): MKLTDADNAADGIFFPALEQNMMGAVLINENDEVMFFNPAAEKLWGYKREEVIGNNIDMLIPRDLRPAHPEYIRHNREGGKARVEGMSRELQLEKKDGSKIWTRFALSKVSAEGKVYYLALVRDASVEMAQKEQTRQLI

Structure (SMILES) | affinity for binding (EcDos) | affinity for binding (EcDosH) | effect on the heme at high hydrogen peroxide concentrations (ferric EcDosH) | association rate constant (ferrous EcDosH; pH 7) | association rate constant (ferrous EcDosH; pH 8) | association rate constant (full-length EcDos)
F [fluoride] | very low affinities | very low affinities |  |  |  | 
c1c[nH]cn1 [imidazole] | very low affinities | very low affinities |  |  |  | 
OO [H2O2, hydrogen peroxide] |  |  | oxidative degradation of the heme is observed |  |  | 
[C-]#[O+] [CO] |  |  |  | 1100 M⁻¹ s⁻¹ | 7800 M⁻¹ s⁻¹ | 810 M⁻¹ s⁻¹
O=O [O2] |  |  |  | 2600 M⁻¹ s⁻¹ | 31000 M⁻¹ s⁻¹ | 1900 M⁻¹ s⁻¹
[N-]=[N+]=[N-] [azide] | very low affinities | very low affinities |  |  |  | 
